Source: paper PMC9948614, “Structural and functional properties of the Kunitz-type and C-terminal domains of Amblyomin-X supporting its antitumor activity” (Frontiers in Molecular Biosciences, 2023)
Where two headings read alike, the source gives them in different places. No end group written: not given here.

Experiments:
MIA PaCa-2 [1] = assay: MTT cell viability assay; type: cell-based, human; details: 48 h
Method: (§1) Cell viability was measured by 3-(4,5-dimethylthiazol-2-yl)-2,5-diphenyltetrazolium bromide (MTT) assay, as described elsewhere ([Morais et al., 2016]). […] After 48h, 10% of 5 mg/ml MTT was added to the cells and the plates were incubated for 3 h at 37 °C. Afterward, the medium was discarded, the dark blue formazan crystalline product was dissolved in 100 µL dimethyl sulfoxide (DMSO), and the absorbance was measured in a Spectra MAX 190 microplate reader (Molecular Devices, Sunnyvale, United States) at 540 nm.
(§2) Amblyomin-X (50 μM) were used for comparative purpose. Besides, staurosporine (5 μM), MG-132 (3 μM) and bortezomib (80 nM) were used as a positive control.

SK-MEL-28 [2] = details: for Uptake of fluorescent (FITC) peptide by cells: SK-MEL-28, 5 or 10 µM, 6 h, ImageXpress Micro Confocal / confocal TCS SP8
Method: An additional step was carried out for the purification of peptides using FPLC. SK-MEL-28 and MIA PaCa-2 (10^5 cells/well) were seeded on sterile 35 mm culture dishes. […] […] The images were deconvolved in Huygens Essential version 22.04 (Scientific Volume Imaging, Netherlands).
Following the same rationale, after treatment, cells were incubated with Alexa Fluor 555 TrF (100 μg/ml), Alexa Fluor 555 CTxB (50 μg/ml) or Alexa Fluor 555 dextran (1 mg/ml) in the binding medium at 37 °C for 20 min. Also, to evaluate cargo-delivery ability of C-ter, tumor cells were incubated with p15 (100 μM) or this molecule conjugate to C-ter (100 μM) for 4 h. […]
(§3) In all 96 wells plate assays, nuclei were stained with Hoechst 33342 and fluorescence was monitored by a Molecular Devices ImageXpress Micro Confocal plate-scanning microscope (Molecular Devices, Sunnyvale, CA). Vesicles count were analyzed using MetaXpress software (Molecular Devices, CA) with Transfluor Application Module.

dynein chains = assay: Gene expression of dynein chains by real-time PCR; type: cell-based, human
Method: Gene expression was evaluated via quantitative real-time polymerase chain reaction (qPCR) according to standard protocols previously reported by our group ([Pacheco et al., 2014]; [Morais et al., 2016]). Briefly, after cell treatment, the total RNA was extracted using the RNeasy kit (Qiagen, Netherlands) followed by DNase treatment, Then, cDNA strands were constructed using a SuperScript® III First-Strand Synthesis kit (InvitrogenTM, Life Technologies Inc., United States), according to manufacturer’s instructions. Finally, the samples were applied in a SYBR® green (Applied Biosystems, United States)-based reaction with specific and validated primers to evaluate mRNA levels of genes coding for dynein chains. RNA levels were normalized to glyceraldehyde 3-phosphate dehydrogenase (GAPDH) and quantified using the Livak 2^−ΔΔCT method ([Livak and Schmittgen, 2001]). The experiments were conducted by Step One Plus® PCR real-time system (Applied Biosystems, United States).

SK-MEL-28 [3] = assay: Cellular uptake by confocal laser scanning microscopy; details: SK-MEL-28, Alexa Fluor 488-labeled molecule 20 µM, 4 h, 37°C
Method: (§4) An additional step was carried out for the purification of peptides using FPLC. SK-MEL-28 and MIA PaCa-2 (10^5 cells/well) were seeded on sterile 35 mm culture dishes. First, a cell-based assay using fluorochrome conjugated molecules was carried by incubation with Amblyomin-X and its synthetic domains (20 µM) in a fresh medium at 37°C for 4 h and nuclei were stained with […] Syto59 (Invitrogen Life Technologies Inc., United States). Then red and green fluorescence were monitored by LSM 510 Meta confocal microscope (Zeiss, Jena, Germany). […] After treatment with synthetic fragments (all at 5 µM) in a fresh medium at 37°C for 4h, tumor cells were scanned on the x-, y-, and z-axes using a confocal microscope TCS SP8 (Leica Microsystems, GmbH Mannheim, DE) with 40x/1.1 objective lens and laser excitation at 405 and 488 nm with additional brightfield channel using the LAS X software (Leica Microsystems, GmbH Mannheim, DE). The images were deconvolved in Huygens Essential version 22.04 (Scientific Volume Imaging, Netherlands).

MIA PaCa-2 [4] = details: MIA PaCa-2, Alexa-Fluor 488-labeled molecule 20 µM, 37°C, ImageXpress Micro Confocal, Transfluor module, mean ± SD of three independent experiments
Method: as §4
(§5) Following the same rationale, after treatment, cells were incubated with Alexa Fluor 555 TrF (100 μg/ml), Alexa Fluor 555 CTxB (50 μg/ml) or Alexa Fluor 555 dextran (1 mg/ml) in the binding medium at 37 °C for 20 min. Also, to evaluate cargo-delivery ability of C-ter, tumor cells were incubated with p15 (100 μM) or this molecule conjugate to C-ter (100 μM) for 4 h. […] Finally, evaluation of C-ter derived fragments (all at 10 μM) were investigated after 4 h of treatment.
as §3

SK-MEL-28 [5] = details: for Vesicles counts: SK-MEL-28, Alexa-Fluor 488-labeled molecule 20 µM, 37°C, ImageXpress Micro Confocal, mean ± SD of three independent experiments
Method: as §4, §5, §3

SK-MEL-28 [6] = assay: MTT cell viability assay; details: 48 h
Method: as §1, §2

FXa = target: T1, FXa (Homo sapiens, UniProt P00742); assay: FXa activity assay, chromogenic substrate S-2765; type: biochemical; details: FXa 40 nM, 30 min 37 °C, 20 mM Tris–HCl, PS/PC 2 µM, 5 mM CaCl2, pH 8.0, S-2765 200 µM, 405 nm
T1 construct: the active factor X (FXa)
Method: Supplementary material 1 - FXa activity assays - FXa (40 nM) was incubated with varying concentrations of the Amblyomin-X recombinant protein and the synthetic domains for 30 min at 37 °C in 20 mM Tris–HCl containing PS/PC (2 µM) and 5 mM CaCl2, pH 8.0. Cleavage of the chromogenic substrate S-2765 (200µM, Chromogenix, UK) was monitored at 405 nm (SpectraMax 190, Molecular Devices, USA). The percentage of inhibition was determined from the residual activity of the enzymes as previously reported15, 16.

SK-MEL-28 [7] = assay: Microinjection assay, cell death by PI staining; type: cell-based, human; details: SK-MEL-28, microinjection of 488-labeled molecule, both 20 µM, 4 h; about 50 cells per condition
Method: SK-MEL-28 cells were plated on glass Cellocate coverslips for 24 h before injection. […] Staurosporine (10 µM) was added directly to the medium for 6 h and was used as a control for PI staining. Ctrl cells were maintained in a culture medium. The solution was injected into the cytoplasm an average of 50 cells for each condition (compensation pressure: 30 hPa; injection pressure: 100 hPa; injection time: 0.3 s). Immediately after injection, cells were replaced with fresh medium in the incubator at 37 °C. After 4 h, cells were stained with PI (1 μg/ml – contain RNAse A 100 ng/ml) for 15 min at r.t.. Then, cells were washed twice with 1X PBS and fixed with 4% paraformaldehyde for 15 min at r.t... Finally, cells were washed with 1X PBS and one drop of solution anti-fade mounting Vectashield® (Vecta Labs) was applied on the slide with the coverslip containing the cells facing down and, then, sealed. The analysis was performed in Leica SP8 confocal microscope (Leica, Germany): Green fluorescence was used to identify microinjected cells and red fluorescence to score cell death.

[8] = MIA PaCa-2, synthetic domains 0.2–100 μM
[9] = tumor cells, other fragments and TAT-Kunitz data not shown
[10] = SK-MEL-28, synthetic domains 0.2–100 μM

T1 sequence (P00742 235-488 limits assumed): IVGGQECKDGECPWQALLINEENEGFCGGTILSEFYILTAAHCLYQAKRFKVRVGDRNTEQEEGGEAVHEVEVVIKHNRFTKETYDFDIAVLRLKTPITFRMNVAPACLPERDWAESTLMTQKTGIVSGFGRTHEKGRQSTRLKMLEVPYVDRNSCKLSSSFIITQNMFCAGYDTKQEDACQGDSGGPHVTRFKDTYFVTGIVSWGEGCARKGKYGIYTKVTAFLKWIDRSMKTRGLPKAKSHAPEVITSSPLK
T1 sequence (P00742 41-179 partner limits assumed): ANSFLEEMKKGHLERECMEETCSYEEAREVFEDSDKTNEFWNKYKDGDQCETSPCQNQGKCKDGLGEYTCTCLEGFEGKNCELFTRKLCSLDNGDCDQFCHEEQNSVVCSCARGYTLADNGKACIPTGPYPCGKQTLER

Question: “EEQTHFHFESPKLIFKVQDYWILNDIMKKNLTGISLKSEEEDADSGEID [C-ter]” was tested. Which “Effect on cell viability (MTT)” value (MIA PaCa-2 [1]; [8]) did it give?
Answer: no alteration

Question: What about the “Uptake of fluorescent (FITC) peptide by cells” value (SK-MEL-28 [2]) of the same substance?
Answer: uptaken

Question: And the “Cells counts per well” value (SK-MEL-28 [2]; SK-MEL-28, fluorescent peptides 10 µM, all treatments investigated)?
Answer: No alterations in cells counts

Question: And the “Gene expression of dynein chains” value (dynein chains; [9])?
Answer: modulated gene expression of dynein chains

Question: What about the “Uptake by cells (green fluorescence, confocal)” value (SK-MEL-28 [3]) of the same substance?
Answer: uptaken

Question: And the Vesicles counts (MIA PaCa-2 [4]; 0.25 h)?
Answer: 4.36 ± 2.03

Question: What about the Vesicles counts (MIA PaCa-2 [4]; 0.5 h) of the same substance?
Answer: 17.50 ± 24.63

Question: What about the Vesicles counts (MIA PaCa-2 [4]; 1 h) of the same substance?
Answer: 10.59 ± 7.15

Question: What about the Vesicles counts (MIA PaCa-2 [4]; 2 h) of the same substance?
Answer: 171.11 ± 248.57

Question: What about the Vesicles counts (MIA PaCa-2 [4]; 4 h) of the same substance?
Answer: 802.63 ± 353.12

Question: And the Vesicles counts (SK-MEL-28 [5]; 0.25 h, MetaXpress Transfluor module)?
Answer: 30.84 ± 17.2

Question: And the Vesicles counts (SK-MEL-28 [5]; 0.5 h, Transfluor module)?
Answer: 35.56 ± 21.09

Question: And the Vesicles counts (SK-MEL-28 [5]; 1 h, Transfluor module)?
Answer: 62.17 ± 11.20

Question: And the Vesicles counts (SK-MEL-28 [5]; 2 h, Transfluor module)?
Answer: 558.48 ± 189.00

Question: And the Vesicles counts (SK-MEL-28 [5]; 4 h, Transfluor module)?
Answer: 1210.74 ± 379.14

Question: And the “Effect on cell viability (MTT)” value (SK-MEL-28 [6]; [10])?
Answer: no alteration

Question: Which “Relative fluorescence units (RFU) compared with other peptides” value (SK-MEL-28 [2]; SK-MEL-28, 10 µM, even in short times of treatment) does the source give for “FKVQDYWILNDIMKKNLTGI* [F2C, C-ter derived fragment 16-35, minimum length C-terminal domain able to enter SK-MEL-28 cells]” here?
Answer: higher values of relative fluorescence units (RFU)

Question: What about the “Uptake of fluorescent (FITC) peptide by cells” value (SK-MEL-28 [2]) of the same substance?
Answer: detected in the cell

Question: And the “Gene expression of dynein chains” value (dynein chains; SK-MEL-28, 5 µM, 24 h, real-time PCR, normalized to GAPDH)?
Answer: modulate gene expression of all dynein chains evaluated

Question: And the “Gene expression of dynein chains” value (dynein chains; [9])?
Answer: modulated gene expression of dynein chains

Question: For “GRKKRRQRRRPPQANSKAVCNLPKLAGDETCSNKTEIRWYYNGTACEAFIFKGCGGNDNNFDRVDDCQRLC-NH2 (also: bicyclic or more (positions not given here)) [TAT-Kunitz]”, which “Cytotoxicity (MTT)” value (SK-MEL-28 [6]; TAT-Kunitz at 20 and 50 μM, cell line not stated at the place (Figure 7B)) is on record?
Answer: significant cytotoxicity activity

Question: How did the “Effect on cell viability (MTT)” value (MIA PaCa-2 [1]; MIA PaCa-2, 100 μM) turn out when “C^#WMSPRHLGT C^#EEQTHFHFESPKLISFKVQDYWILNDIMKKNLTGISLKSEEEDADSGEID (disulfide) [p15-C-ter]” was run?
Answer: decreased cell viability

Question: And the “Internalization relative to the non-conjugated molecule (p15)” value (SK-MEL-28 [5])?
Answer: eight-fold more internalized

Question: What about the “Effect on cell viability (MTT)” value (SK-MEL-28 [6]; SK-MEL-28, 100 μM) of the same substance?
Answer: decreased cell viability

Question: How did the “Effect on cell viability (MTT)” value (MIA PaCa-2 [1]; [8]) turn out when “ANSKAVCNLPKAGDETCSNKTEIRWYYNGTACEAFIFKGCGGNDNNFDRVDDCQRLC-NH2 (also: bicyclic or more (positions not given here)) [Kunitz]” was run?
Answer: no alteration

Question: And the “Inhibitory activity against FXa” value (FXa)?
Answer: lower inhibitory activity against FXa than TFPI-K2

Question: And the “Propidium iodide (PI) staining after microinjection” value (SK-MEL-28 [7])?
Answer: 26%

Question: And the “Uptake by cells (green fluorescence, confocal)” value (SK-MEL-28 [3])?
Answer: not detected inside the cells

Question: And the “Number of vesicles relative to complete Amblyomin-X” value (SK-MEL-28 [5])?
Answer: ten-fold less

Question: What about the “Effect on cell viability (MTT)” value (SK-MEL-28 [6]; [10]) of the same substance?
Answer: no alteration
